Assay results: patent US12503506B2, “Dual drug antibody-drug conjugates” (priority 2019, dated 2025)
pIC50: −log10 of the molar value.

Assays:
[1] = tested on: multidrug-resistant Namalwa cell line (MDR+ve); experiment: MTT cytotoxicity assay in multidrug-resistant Namalwa cells; type: cell-based; conditions: 72 h
Protocol: (§1) Namalwa 21 nM VCR (multidrug-resistant cells by exposure to vincristine (21 nM), and Namalwa wild type (ATCC CRL-1432) cells were cultured in ATCC-formulated RPMI-1640 medium with L-glutamine (2 mM), sodium bicarbonate (1.5 g L-1), glucose (4.5 g L^−1), HEPES (10 mM) and sodium pyruvate (1.0 mM). The media was supplemented with penicillin (100 U mL^−1) and streptomycin (100 μg mL^−1, Mediatech) and fetal bovine serum (FBS, 10%, BenchMark). Cells were maintained in a humid 5% CO2 atmosphere at 37° C. and subcultured every 2-3 days.
(§2) Cytotoxicity of PCTX and compounds 2, 2& 10, 15 and 17 was determined using the MTT assay. On the day of exposure, exponentially growing cells were plated at 25,000 cells/well in 160 μL in 96-well tissue culture plates (Nunc). Cells were then incubated with medium (control) or compounds (20 μL, 10× in cell culture medium) at the indicated final concentrations (0.1-1000 nM). At 68 h, MTT reagent (5 mg mL^−1 in PBS, 20 μL/well) was added to each well. The plate was further incubated at 37° C. At 72 h the plate was centrifuged at 1400 rpm for 10 min at 4° C. and supernatants were carefully removed. DMSO (100 μL/well) was added to dissolve the water-insoluble formazan salt. The absorbance was measured at 545 nm using a microplate reader (BMG Labtech). Data points were collected in triplicate and expressed as normalized values for untreated control cells (100%). […]

Namalwa wild type cells = experiment: MTT cytotoxicity assay in Namalwa wild type cells; type: cell-based; conditions: 72 h incubation, read-out: IC50 (cytotoxicity, cell viability by MTT)
Protocol: as §1, §2

Compound	activity (cytotoxicity) in MDR+ve cell line [1]	pIC50 (Namalwa wild type cells)
CC(=O)O[C@H]1C(=O)[C@]2(C)[C@@H](O)CC3OC[C@@]3(OC(C)=O)[C@H]2[C@H](OC(=O)c2ccccc2)[C@]2(O)C[C@H](OC(=O)[C@H](OC(=O)CCC(=O)NCCOCCOCCNC(=O)OCC3C4CCC#CCCC43)[C@@H](NC(=O)c3ccccc3)c3ccccc3)C(C)=C1C2(C)C (stereo partly drawn) [Compound 2, (4S,4aS,6R,9S,11S,12S,12aR,12bS)-9-(((19R)-19-((S)-benzamido(phenyl)methyl)-1-(bicyclo[6.1.0]non-4-yn-9-yl)-3,14,17-trioxo-2,7,10,18-tetraoxa-4,13-diazaicosan-20-oyl)oxy)-12-(benzoyloxy)-4,11-dihydroxy-4a,8,13,13-tetramethyl-5-oxo-3,4,4a,5,6,9,10,11,12,12a-decahydro-1H-7,11-methanocyclodeca[3,4]benzo[1,2-b]oxete-6,12b(2aH)-diyl diacetate]	no appreciable activity	7.59
CC(=O)O[C@H]1C(=O)[C@@]2(C)[C@H]([C@H](OC(=O)c3ccccc3)[C@]3(O)C[C@H](OC(=O)[C@H](O)[C@@H](NC(=O)c4ccccc4)c4ccccc4)C(C)=C1C3(C)C)[C@]1(OC(C)=O)CO[C@@H]1C[C@@H]2O [PCTX, Paclitaxel, reference compound]	–	8.70
